Results on ten compounds are retold here after patent US9701689B2, “Substituted pyridines and pyridazines as CCR10 receptor inhibitors” (KYOWA HAKKO KIRIN CO., LTD., priority 2012, dated 2017).

One experiment concerns the target T1, human CCR10 (Homo sapiens, UniProt P46092).
T1 construct: expressed in transfected cells; host or cells: KJMGER8 cells (Namalwa cell-derived line), beta-estradiol-induced; hCCR10G16 cells
T1 sequence (P46092 1-362): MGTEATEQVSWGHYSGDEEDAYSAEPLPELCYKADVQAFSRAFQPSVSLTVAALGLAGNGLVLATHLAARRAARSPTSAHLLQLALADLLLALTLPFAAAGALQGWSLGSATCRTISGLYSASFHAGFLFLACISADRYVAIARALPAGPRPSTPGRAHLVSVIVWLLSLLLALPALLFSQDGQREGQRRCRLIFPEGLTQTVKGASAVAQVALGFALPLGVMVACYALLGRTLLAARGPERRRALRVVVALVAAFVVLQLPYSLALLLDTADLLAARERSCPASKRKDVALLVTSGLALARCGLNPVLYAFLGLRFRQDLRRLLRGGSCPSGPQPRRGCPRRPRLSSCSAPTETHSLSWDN
Put plainly: CCR10 antagonistic effect: calcium assay of human CCR10 (CTACK-induced increase of intracellular calcium in hCCR10G16 cells). The format is cell-based. The following applies: at a concentration of not more than 1000 nmol/L; human CCR10-expressing hCCR10G16 cells, 300 nmol/L CTACK added; read-out: inhibition of increase in the calcium ion concentration. The method in brief: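 Inhibition of CTACK-evoked calcium flux (max minus min Fluo-3 fluorescence over ~5 min, FDSS) was calculated against control in β-estradiol-induced human CCR10/Gα16 KJMGER8 cells, after 30 min compound preincubation at 37 °C; CTACK added from a 300 nmol/L solution.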

Experiment [1] relates to Dinitrofluorobenzene-induced Auricle Edema Reaction in Mouse. The experiment can be described thus: Suppressive action on dinitrofluorobenzene-induced auricle edema reaction in mouse. The format is in vivo. The following applies: BALB/c mice; for suppressive action on auricle edema response (in words): topical application in acetone, summary of Table 28; for inhibition in vivo at 1 %: test compound concentration 1% (w/v) in acetone. How it is done:
[Experimental Example 2] Suppressive Action on Dinitrofluorobenzene-induced Auricle Edema Reaction in Mouse
BALB/c mice (female, supplied by CHARLES RIVER LABORATORIES JAPAN, INC.) were purchased at the age of 5 weeks. After quarantine and acclimation, mice showing smooth body weight increase and free of abnormality in appearance were used and the test was started at the age of 7 weeks. The mice were housed in a breeding room at room temperature 19-25° C., humidity 30-70%, 12 hr lighting per day (7 a.m.-7 p.m.) with 3 mice in each plastic gauge, and bred on with free ingestion of a commercially available solid feed and water.
Two days before the test, the abdomen of the BALB/c mice was shaved, and the mice were immunized by applying 100 μL of a solution {concentration 0.5% [weight (w)/volume (v) %]} of dinitrofluorobenzene (manufactured by Nacalai Tesque) in acetone (manufactured by Wako Pure Chemical Industries, Ltd.) to the shaved part. The reaction was induced by applying dinitrofluorobenzene-acetone solution [concentration 0.2% (w/v %)] to the front and the back of auricle (10 μL to each, total 20 μL) on day 5 after the immunization. A test compound dissolved in acetone at concentration of 0.1% or 1% (w/v %) was administered by applying same to the front and the back of auricle (10 μL to each, total 20 μL) 1 hr before and 3 hr after induction of the reaction. After application, the applied part was air-dried with a dryer.
The group applying administered with the test compound was taken as a test compound administration group, and the group applying administered with acetone as a solvent instead of the test compound was taken as a solvent administration group. Also, the group free of immunization and reaction induction but applying administered with acetone instead of the test compound was taken as a normal group. The thickness of auricle was measured using a dial thickness gauge (G-1A manufactured by OZAKI MFG. CO., LTD.) immediately before and 24 hr after induction of the reaction, and the difference thereof was taken as auricle edema. The suppression rate (%) of auricle edema was calculated according to the following formula.

Setting [2] is: Mus musculus, topical, applied to auricle 1 hr before and 3 hr after induction, measured 24 hr after induction, read-out: auricle edema suppression rate (%).

Molecules are shown by their SMILES.

With `Cc1cc(F)ccc1Nc1cc(S(=O)(=O)Nc2ccon2)ncc1C(=O)N1CCC(c2ccc(F)cc2)CC1` [Compound 11, 4-(4-fluoro-2-methylphenylamino)-5-[4-(4-fluorophenyl)piperidine-1-carbonyl]-N-(isoxazol-3-yl)pyridine-2-sulfonamide], the inhibition at up to 1 µM on human CCR10 was at least 50%. Further, the “suppressive action on auricle edema response (in words)” value (“suppressive action” below) in experiment [1] is “showed a suppressive action on auricle edema response”. Also, in experiment [1] (setting [2]), the inhibition in vivo at 1 % was determined as 32%.

`Cc1cc(Cl)ccc1Nc1cc(S(=O)(=O)NC(=O)NC2CC2)ncc1C(=O)N1CCC(c2ccc(F)cc2)CC1` [Compound 21, 4-(4-chloro-2-methylphenylamino)-N-(cyclopropylcarbamoyl)-5-[4-(4-fluorophenyl)piperidine-1-carbonyl]pyridine-2-sulfonamide]: at human CCR10, the inhibition at up to 1 µM is at least 50%. Moreover, the “suppressive action” value in experiment [1] was “showed a suppressive action on auricle edema response”. For the same compound, the inhibition in vivo at 0.1 % in experiment [1] (Mus musculus, topical, test compound concentration 0.1% (w/v) in acetone, applied to auricle 1 hr before and 3 hr after induction, measured 24 hr after induction, read-out: auricle edema suppression rate (%)) was found to be 26%.

Take `CCNC(=O)NS(=O)(=O)c1cc(Nc2ccc(F)cc2C)c(C(=O)N2CCC(c3ccc(F)cc3)CC2)cn1` [Compound 22, N-(ethylcarbamoyl)-4-(4-fluoro-2-methylphenylamino)-5-[4-(4-fluorophenyl)piperidine-1-carbonyl]pyridine-2-sulfonamide]: the inhibition at up to 1 µM on human CCR10 was at least 50%. Also, the “suppressive action” value in experiment [1] is recorded as “showed a suppressive action on auricle edema response”. The inhibition in vivo at 1 % in experiment [1] (setting [2]) worked out at 47%.

As for `Cc1cc(F)ccc1Nc1c(C(=O)N2CCC(c3ccc(F)cc3)CC2)cnc(S(N)(=O)=O)c1Cl` [Compound 25, 3-chloro-4-(4-fluoro-2-methylphenylamino)-5-[4-(4-fluorophenyl)piperidine-1-carbonyl]pyridine-2-sulfonamide], the inhibition at up to 1 µM on human CCR10 was at least 50%. Besides, the “suppressive action” value in experiment [1] is “showed a suppressive action on auricle edema response”. The inhibition in vivo at 1 % in experiment [1] (setting [2]) came to 47%.

For the compound `NS(=O)(=O)c1ncc(C(=O)N2CCC(c3ccc(F)cc3)CC2)c(Nc2cccc(Cl)c2)c1Cl` [Compound 176, 3-chloro-4-(3-chlorophenylamino)-5-[4-(4-fluorophenyl)piperidine-1-carbonyl]pyridine-2-sulfonamide], the inhibition at up to 1 µM on human CCR10 was at least 50%. Besides, the “suppressive action” value in experiment [1] is “showed a suppressive action on auricle edema response”. Also, the inhibition in vivo at 1 % in experiment [1] (setting [2]) stood at 42%.

On to `Cc1ccc(Cl)cc1Nc1c(C(=O)N2CCC(c3ccc(F)cc3)CC2)cnc(S(=O)(=O)Nc2ccon2)c1C` [Compound 232, 4-(5-chloro-2-methylphenylamino)-5-[4-(4-fluorophenyl)piperidine-1-carbonyl]-N-(isoxazol-3-yl)-3-methylpyridine-2-sulfonamide], for which the inhibition at up to 1 µM on human CCR10 is at least 50%. In experiment [1], the “suppressive action” value is recorded as “showed a suppressive action on auricle edema response”. Besides, the inhibition in vivo at 1 % in experiment [1] (setting [2]) was determined as 39%.

Consider `Cc1c(S(=O)(=O)Nc2ccon2)ncc(C(=O)N2CCC(c3ccc(F)cc3)CC2)c1Nc1cccc(F)c1` [Compound 233, 5-[4-(4-fluorophenyl)piperidine-1-carbonyl]-4-(3-fluorophenylamino)-N-(isoxazol-3-yl)-3-methylpyridine-2-sulfonamide], for which, at human CCR10, the inhibition at up to 1 µM is at least 50%. In addition, in experiment [1], the “suppressive action” value is reported as “showed a suppressive action on auricle edema response”. Moreover, the inhibition in vivo at 1 % in experiment [1] (setting [2]) was 24%.

On to `Cc1cc(NS(=O)(=O)c2ncc(C(=O)N3CCC(c4ccc(F)cc4)CC3)c(Nc3ccccc3C)c2C)sn1` [Compound 241, 5-[4-(4-fluorophenyl)piperidine-1-carbonyl]-3-methyl-N-(3-methylisothiazol-5-yl)-4-(o-tolylamino)pyridine-2-sulfonamide], for which the inhibition at up to 1 µM at human CCR10 is at least 50%. For the same compound, the “suppressive action” value in experiment [1] was “showed a suppressive action on auricle edema response”. Also, the inhibition in vivo at 1 % in experiment [1] (setting [2]) is 27%.

Turning to `Cc1c(S(=O)(=O)Nc2ccon2)ncc(C(=O)N2CCC(c3ccc(F)cc3)CC2)c1Nc1ccc(Cl)cc1` [Compound 259, 4-(4-chlorophenylamino)-5-[4-(4-fluorophenyl)piperidine-1-carbonyl]-N-(isoxazol-3-yl)-3-methylpyridine-2-sulfonamide], on human CCR10, the inhibition at up to 1 µM was at least 50%. In experiment [1], the “suppressive action” value was “showed a suppressive action on auricle edema response”. Further, the inhibition in vivo at 1 % in experiment [1] (setting [2]) was 38%.

For the compound `NS(=O)(=O)c1ncc(C(=O)N2CCC(c3ccc(F)cc3)CC2)c(Nc2ccc(C(F)(F)F)cc2)c1Cl` [Compound 291, 3-chloro-5-[4-(4-fluorophenyl)piperidine-1-carbonyl]-4-[4-(trifluoromethyl)phenylamino]pyridine-2-sulfonamide], the inhibition at up to 1 µM on human CCR10 is at least 50%. In addition, the “suppressive action” value in experiment [1] was “showed a suppressive action on auricle edema response”. The inhibition in vivo at 1 % in experiment [1] (setting [2]) was found to be 35%.
